From patent publication US6001832A, “[1,2,4]triazolo[4,3-a]quinoxalinone derivatives, their preparation and use” (Novo Nordiskals, priority 1994, dated 1999)

Assays:
[1] = test system: quisqualic acid stimulated spreading depression in chicken retina; test: Spreading Depression (Test 2): quisqualic acid stimulated spreading depression in chicken retina; assay type: cell-based; details: Gallus gallus, 0.25 h; 50% maximal inhibition of quisqualate (1 μg/ml) stimulated spreading depression in chicken retina; 15 min incubation with test compound, 26° C.
Experimental: (§1) The pharmacological properties of the compounds of the present invention can be illustrated by determining their capability for displacing radioactively labelled 2-amino-3-hydroxy-5-methyl-4-isoxazolepropionic acid (AMPA) from the AMPA type receptors.
The antagonism is measured by determining the IC50 value which represents the concentration which produces a 50% maximal inhibition of quisqualic acid stimulated spreading depression in chicken retina.
Spreading Depression (Test 2)
Chicks (3-10 days old) were decapitated, the eyes enucleated and sectioned along the equatorial plane. […]
The eyes were initially incubated in normal P.S.S. for 15-30 min. and then transferred to P.S.S. containing quisqualate (1 μg/ml). […] The time taken for an S.D. to start in each eye was measured.
After a further 15 min. of incubation in normal P.S.S. the eyes were transferred to normal P.S.S. containing the test compound and incubated for 15 min. […] The time taken for an S.D. to start in each eye was measured again. The eyes were then placed back in normal P.S.S. and after 15 min. the time taken for S.D. to start was measured again, in order to assess the degree of recovery from any drug effects. […]

AMPA type receptors = test: 3H-AMPA Binding (Test 1); details: displacement of 50% of the specific binding of 3H-AMPA (5 nM); rat cerebral cortical membrane homogenate, 0° C., 30 min, pH 7.1
Experimental: as §1
The displacement activity of the compounds may be shown by determining the IC50 value which represents the concentration (μM) which causes a displacement of 50% of the specific binding of ^3 H-AMPA.
^3 H-AMPA Binding (Test 1)
500 μl of thawed rat cerebral cortical membrane homogenate in Tris-HCl (30 mM), CaCl2 (2.5 mM) and KSCN (100 mM) pH 7.1 were incubated at 0° C. for 30 min. with 25 μl ^3 H-AMPA (5 nM final concentration) and the test compound and buffer. Nonspecific binding was determined by incubation with L-glutamic acid (600 μM final concentration). The binding reaction was terminated by adding 5 ml of ice-cold buffer followed by filtration through Whatman GF/C glass fibre filters and 2×5 ml wash with ice-cold buffer. Bound radioactivity was measured by scintillation counting. IC50 was determined by Hill analysis of at least four concentrations of test compound.

Cc1cn(-c2cc3c(cc2C(F)(F)F)[nH]c(=O)c2nnc(CP(=O)(O)O)n23)c(-c2ccccc2)n1 [Example 2, 8-(4-Methyl-2-phenyl-1H-imidazol-1-yl)-1-phosphonomethyl-7-trifluoromethyl[1,2,4]triazolo[4,3-a]quinoxalin-4(5H)-one]
IC50 [1]: 0.4 µM
IC50 (AMPA type receptors): 0.39 µM
